{"source": "paper PMC6959545", "about": "(European journal of medicinal chemistry, 2013)", "key": {"human TRPV1 [1]": {"molecular_target": "T1, human TRPV1 (Homo sapiens, UniProt Q8NER1)", "T1 sequence (Q8NER1 whole entry)": "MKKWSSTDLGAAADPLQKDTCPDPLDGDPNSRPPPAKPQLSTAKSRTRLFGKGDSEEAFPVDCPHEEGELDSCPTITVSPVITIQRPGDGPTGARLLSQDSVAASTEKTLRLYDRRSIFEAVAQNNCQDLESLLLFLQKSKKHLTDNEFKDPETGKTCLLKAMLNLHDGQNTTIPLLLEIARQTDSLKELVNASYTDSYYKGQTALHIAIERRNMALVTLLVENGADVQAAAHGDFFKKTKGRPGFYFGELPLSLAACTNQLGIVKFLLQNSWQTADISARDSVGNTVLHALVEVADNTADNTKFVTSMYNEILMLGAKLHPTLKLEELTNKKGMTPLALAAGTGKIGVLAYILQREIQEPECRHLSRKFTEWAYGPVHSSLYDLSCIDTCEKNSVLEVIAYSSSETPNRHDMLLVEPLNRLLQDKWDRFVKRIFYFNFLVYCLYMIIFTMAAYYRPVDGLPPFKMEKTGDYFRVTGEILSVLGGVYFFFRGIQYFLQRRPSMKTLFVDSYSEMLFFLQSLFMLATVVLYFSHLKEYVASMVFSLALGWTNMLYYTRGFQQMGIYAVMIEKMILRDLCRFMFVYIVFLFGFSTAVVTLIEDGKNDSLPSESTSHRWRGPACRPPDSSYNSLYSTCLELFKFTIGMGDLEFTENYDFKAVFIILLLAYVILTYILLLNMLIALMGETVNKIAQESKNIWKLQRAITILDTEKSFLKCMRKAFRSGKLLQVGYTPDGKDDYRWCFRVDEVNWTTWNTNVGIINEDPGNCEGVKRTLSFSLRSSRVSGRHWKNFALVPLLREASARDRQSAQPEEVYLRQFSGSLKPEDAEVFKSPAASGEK", "assay": "hTRPV1 antagonism of capsaicin", "format": "cell-based", "details": "for fold less potent than 12, CAP antagonism: compared with 2-pentyloxy derivative 12; for fold less potent than 11, CAP antagonism: compared with 2-butoxy derivative 11"}, "mice (formalin test)": {"system": "mice (formalin test)", "assay": "formalin test in mice, oral administration", "format": "in vivo"}, "human TRPV1 [2]": {"molecular_target": "T1, human TRPV1", "assay": "hTRPV1 antagonism of pH activation, FLIPR", "format": "cell-based", "details": "compound 1 vs lead 2"}}, "data": [{"smiles": "COCCCOc1nc(C(F)(F)F)ccc1CNC(=O)C(C)c1ccc(NS(C)(=O)=O)c(F)c1", "note": "(stereo not shown) [Compound 18, N-((2-(3-Methoxypropoxy)-6-(trifluoromethyl)pyridin-3-yl)methyl)-2-(3-fluoro-4-(methylsulfonamido)phenyl)propanamide]", "values": [{"measurement": "fold less potent than 12, CAP antagonism", "setting": "human TRPV1 [1]", "result": 22, "unit": "fold"}]}, {"smiles": "CC(C)COc1nc(C(F)(F)F)ccc1CNC(=O)C(C)c1ccc(NS(C)(=O)=O)c(F)c1", "note": "(stereo not shown) [Compound 22, N-((2-Isobutoxy-6-(trifluoromethyl)pyridin-3-yl)methyl)-2-(3-fluoro-4-(methylsulfonamido)phenyl)propanamide]", "values": [{"measurement": "analgesic activity in the formalin test", "setting": "mice (formalin test)", "result": "strong analgesic activity"}]}, {"smiles": "CC1CCN(c2nc(C(F)(F)F)ccc2CNC(=O)C(C)c2ccc(NS(C)(=O)=O)c(F)c2)CC1", "note": "(stereo not shown) [Compound 1, reference compound]", "values": [{"measurement": "fold better than precedent lead 2, CAP antagonism", "setting": "human TRPV1 [1]; compound 1 vs lead 2", "result": 150, "unit": "fold"}, {"measurement": "fold better than precedent lead 2, pH antagonism", "setting": "human TRPV1 [2]", "result": 230, "unit": "fold"}]}, {"smiles": "C/C=C\\COc1nc(C(F)(F)F)ccc1CNC(=O)C(C)c1ccc(NS(C)(=O)=O)c(F)c1", "note": "(stereo not shown) [Compound 14, (Z)-N-((2-(But-2-en-1-yloxy)-6-(trifluoromethyl)pyridin-3-yl)methyl)-2-(3-fluoro-4-(methylsulfonamido)phenyl)propanamide]", "values": [{"measurement": "fold less potent than 11, CAP antagonism", "setting": "human TRPV1 [1]", "result": "ca. 5 fold"}]}, {"smiles": "COCCOc1nc(C(F)(F)F)ccc1CNC(=O)C(C)c1ccc(NS(C)(=O)=O)c(F)c1", "note": "(stereo not shown) [Compound 16, N-((2-(2-Methoxyethoxy)-6-(trifluoromethyl)pyridin-3-yl)methyl)-2-(3-fluoro-4-(methylsulfonamido)phenyl)propanamide]", "values": [{"measurement": "fold less potent than 11, CAP antagonism", "setting": "human TRPV1 [1]", "result": 160, "unit": "fold"}]}, {"smiles": "CCOCCCOc1nc(C(F)(F)F)ccc1CNC(=O)C(C)c1ccc(NS(C)(=O)=O)c(F)c1", "note": "(stereo not shown) [Compound 19, N-((2-(3-Ethoxypropoxy)-6-(trifluoromethyl)pyridin-3-yl)methyl)-2-(3-fluoro-4-(methylsulfonamido)phenyl)propanamide]", "values": [{"measurement": "fold less potent than 13, CAP antagonism", "setting": "human TRPV1 [1]; compared with 2-hexyloxy derivative 13", "result": 20, "unit": "fold"}]}, {"smiles": "CCOCCOc1nc(C(F)(F)F)ccc1CNC(=O)C(C)c1ccc(NS(C)(=O)=O)c(F)c1", "note": "(stereo not shown) [Compound 17, N-((2-(2-Ethoxyethoxy)-6-(trifluoromethyl)pyridin-3-yl)methyl)-2-(3-fluoro-4-(methylsulfonamido)phenyl)propanamide]", "values": [{"measurement": "fold less potent than 12, CAP antagonism", "setting": "human TRPV1 [1]", "result": 70, "unit": "fold"}]}, {"smiles": "CC(C(=O)NCc1ccc(C(F)(F)F)nc1OCc1ccccc1)c1ccc(NS(C)(=O)=O)c(F)c1", "note": "(stereo not shown) [Compound 53, N-((2-Benzyloxy-6-(trifluoromethyl)pyridin-3-yl)methyl)-(3-fluoro-4-(methylsulfonamido)phenyl)propanamide]", "values": [{"measurement": "analgesic activity in the formalin test", "setting": "mice (formalin test)", "result": "strong analgesic activity"}]}, {"smiles": "CC/C=C\\COc1nc(C(F)(F)F)ccc1CNC(=O)C(C)c1ccc(NS(C)(=O)=O)c(F)c1", "note": "(stereo not shown) [Compound 15, (Z)-N-((2-(Pent-2-en-1-yloxy)-6-(trifluoromethyl)pyridin-3-yl)methyl)-2-(3-fluoro-4-(methylsulfonamido)phenyl)propanamide]", "values": [{"measurement": "fold less potent than 12, CAP antagonism", "setting": "human TRPV1 [1]", "result": "~1.5", "unit": "fold"}]}]}
